Source: article PMC4187893, “Biochemical and Antiparasitic Properties of Inhibitors of the Plasmodium falciparum Calcium-Dependent Protein Kinase PfCDPK1” (Antimicrobial Agents and Chemotherapy, 2014)
Read-outs that look alike come from different tables or passages of the source.

Experiments:
PfCDPK1 [1] = biological target: T1, PfCDPK1 (Plasmodium falciparum, UniProt P62344); assay: Radiometric assay, incorporation of 33P into MTIP; details: for IC50 ratio (ATP depletion/radiometric assay): Kinase-Glo Plus IC50 / radiometric IC50; for IC50: read-out: IC50 Radiometric assay, ATP and MTIP at their respective Km values
PfCDPK1 [2] = biological target: T1, PfCDPK1; assay: Kinase-Glo Plus ATP depletion assay; details: read-out: IC50 ATP depletion, ATP and MTIP at their respective Km values
PfCDPK1 [3] = biological target: T1, PfCDPK1; details: absence of MTIP; for IC50: mean (SD), n = 2
PvCDPK1 = PvCDPK1 (Plasmodium vivax, UniProt A5KBU9); assay: Rh-ParM ADP sensor IC50 assay, PvCDPK1; details: for IC50: read-out: IC50 PvCDPK1, Rh-ParM, absence of MTIP, mean (SD)
PbCDPK1 = PbCDPK1 (Plasmodium berghei, UniProt A0A509AHB6); assay: Rh-ParM ADP sensor IC50 assay, PbCDPK1; details: for IC50: read-out: IC50 PbCDPK1, Rh-ParM, absence of MTIP, mean (SD)
[4] = parameters: method as in PMID 24689770; details: cited from earlier work
P. falciparum 3D7 = assay: FACS assay for parasite growth; details: Plasmodium falciparum, 3D7, 48 h, read-out: mean EC50, positive controls in parasite growth assay
[5] = read-out: IC50 With 30 μM ATP, 30 μM ATP, Rh-ParM ADP detection
[6] = read-out: IC50 With 1 mM ATP, 1 mM ATP, Rh-ParM ADP detection
[7] = read-out: IC50 PfCDPK1, Rh-ParM, ATP at Km

Chain of PvCDPK1 (A5KBU9 entry or part of it): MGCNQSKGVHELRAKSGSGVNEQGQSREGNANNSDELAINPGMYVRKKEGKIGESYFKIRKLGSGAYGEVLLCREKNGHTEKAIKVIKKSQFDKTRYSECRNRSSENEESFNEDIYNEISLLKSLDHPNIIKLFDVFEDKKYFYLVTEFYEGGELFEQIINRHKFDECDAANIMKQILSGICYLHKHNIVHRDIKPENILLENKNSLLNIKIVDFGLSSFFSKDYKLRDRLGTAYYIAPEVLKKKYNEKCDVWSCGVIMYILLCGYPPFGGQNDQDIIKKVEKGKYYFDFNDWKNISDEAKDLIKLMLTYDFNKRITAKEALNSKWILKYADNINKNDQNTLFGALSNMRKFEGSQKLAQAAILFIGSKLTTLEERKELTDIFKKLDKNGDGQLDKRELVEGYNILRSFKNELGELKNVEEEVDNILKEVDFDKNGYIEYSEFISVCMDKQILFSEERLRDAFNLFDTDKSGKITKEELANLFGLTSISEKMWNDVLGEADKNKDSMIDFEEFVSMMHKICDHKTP
Chain of PbCDPK1 (A0A509AHB6 whole entry): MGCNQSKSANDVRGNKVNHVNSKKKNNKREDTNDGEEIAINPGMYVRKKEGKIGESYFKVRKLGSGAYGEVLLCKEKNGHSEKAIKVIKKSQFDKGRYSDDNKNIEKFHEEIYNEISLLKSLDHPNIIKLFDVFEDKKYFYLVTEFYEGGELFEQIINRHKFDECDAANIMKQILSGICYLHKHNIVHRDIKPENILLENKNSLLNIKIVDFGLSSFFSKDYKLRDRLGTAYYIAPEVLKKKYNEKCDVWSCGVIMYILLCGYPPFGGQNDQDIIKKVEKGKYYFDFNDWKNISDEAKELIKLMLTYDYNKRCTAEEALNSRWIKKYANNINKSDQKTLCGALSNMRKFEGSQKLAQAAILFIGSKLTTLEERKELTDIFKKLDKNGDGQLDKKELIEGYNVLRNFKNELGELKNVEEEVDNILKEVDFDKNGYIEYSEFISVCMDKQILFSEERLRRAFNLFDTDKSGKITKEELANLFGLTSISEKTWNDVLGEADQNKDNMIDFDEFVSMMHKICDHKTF
T1 sequence (P62344 whole entry): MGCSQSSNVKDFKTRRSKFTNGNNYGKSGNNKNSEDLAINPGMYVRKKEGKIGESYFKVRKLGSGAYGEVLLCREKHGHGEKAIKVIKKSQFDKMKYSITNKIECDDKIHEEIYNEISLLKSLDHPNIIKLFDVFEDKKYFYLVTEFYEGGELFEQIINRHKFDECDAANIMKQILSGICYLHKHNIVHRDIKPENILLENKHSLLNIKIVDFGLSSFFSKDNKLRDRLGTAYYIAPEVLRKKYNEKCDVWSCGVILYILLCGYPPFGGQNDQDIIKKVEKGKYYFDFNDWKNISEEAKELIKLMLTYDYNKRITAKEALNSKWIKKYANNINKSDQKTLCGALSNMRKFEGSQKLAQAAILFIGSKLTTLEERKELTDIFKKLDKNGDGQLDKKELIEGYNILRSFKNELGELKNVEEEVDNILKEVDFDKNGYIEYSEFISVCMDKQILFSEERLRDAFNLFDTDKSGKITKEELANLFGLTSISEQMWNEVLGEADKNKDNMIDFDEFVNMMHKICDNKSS

## CC(=O)Nc1cccc(-c2cnc3ccc(NCCc4ccccn4)nn23)c1 [Compound 10]
PfCDPK1 [1]
  IC50 ratio (ATP depletion/radiometric assay): 2.7
  IC50: 24 nM
PfCDPK1 [2]
  IC50: 65 nM
PfCDPK1 [3]; Rh-ParM
  IC50 ratio (IC50 with 1 mM ATP/IC50 with 30 μM ATP): 27
PfCDPK1 [3]; [5]
  IC50: 64 nM
PfCDPK1 [3]; [6]
  IC50: 1700 nM

## CN1CCC(Nc2ccn3ncc(-c4cccc(NC(=O)c5ccccc5)c4)c3n2)CC1 [Compound 28]
PfCDPK1 [3]; [7]
  IC50: 40 nM
PvCDPK1
  IC50 ratio PvCDPK1/PfCDPK1: 0.6
PvCDPK1; ATP at Km, n = 2
  IC50: 24 nM
PbCDPK1
  IC50 ratio PbCDPK1/PfCDPK1: 3.8
PbCDPK1; ATP at Km, n = 2
  IC50: 152 nM

## O=C(NCc1ccccc1)c1ccc(-c2cnc3ccc(NCCc4cccnc4)nn23)cc1 [Compound 47]
PfCDPK1 [1]
  IC50 ratio (ATP depletion/radiometric assay): 3.9
  IC50: 7 nM
PfCDPK1 [2]
  IC50: 27 nM

## CC(C)CCNc1ccc(-c2cnn3ccc(NC4CCN(C)C4)nc23)cn1 (stereo not shown) [Compound 41]
PfCDPK1 [3]; [7]
  IC50: 73 nM
PvCDPK1
  IC50 ratio PvCDPK1/PfCDPK1: 0.9
PvCDPK1; ATP at Km, n = 2
  IC50: 68 nM
PbCDPK1
  IC50 ratio PbCDPK1/PfCDPK1: 2.8
PbCDPK1; ATP at Km, n = 2
  IC50: 206 nM

## CC(=O)Nc1cccc(-c2cnn3ccc(NCCc4cccnc4)nc23)c1 [Compound 14]
PfCDPK1 [1]
  IC50 ratio (ATP depletion/radiometric assay): 3.5
  IC50: 15 nM
PfCDPK1 [2]
  IC50: 52 nM
PfCDPK1 [3]; Rh-ParM
  IC50 ratio (IC50 with 1 mM ATP/IC50 with 30 μM ATP): 27
PfCDPK1 [3]; [5]
  IC50: 28 nM
PfCDPK1 [3]; [6]
  IC50: 745 nM

## c1nc(NCC2CC2)ncc1-c1cnc2ccc(NC3CCNCC3)nn12 [Compound 40]
PfCDPK1 [3]; [7]
  IC50: 52 nM
PvCDPK1
  IC50 ratio PvCDPK1/PfCDPK1: 0.9
PvCDPK1; ATP at Km, n = 2
  IC50: 48 nM
PbCDPK1
  IC50 ratio PbCDPK1/PfCDPK1: 4.8
PbCDPK1; ATP at Km, n = 2
  IC50: 249 nM

## CC(C)Oc1ccc(CNC(=O)c2ccc(-n3cnc4cccnc43)cc2)cc1 [Compound 18]
PfCDPK1 [3]; Rh-ParM
  IC50 ratio (IC50 with 1 mM ATP/IC50 with 30 μM ATP): 53
PfCDPK1 [3]; [5]
  IC50: 86 nM
PfCDPK1 [3]; [6]
  IC50: 4530 nM

## Cc1c(C(=O)N(C)C2CCCCC2)noc1COc1ccc(-n2cncn2)cc1 [Compound 21]
PfCDPK1 [3]; Rh-ParM
  IC50 ratio (IC50 with 1 mM ATP/IC50 with 30 μM ATP): 41
PfCDPK1 [3]; [5]
  IC50: 143 nM
PfCDPK1 [3]; [6]
  IC50: 5930 nM

## Fc1cccnc1Nc1ccc(-c2cnc3ccc(NC4CCC(N5CCCC5)CC4)nn23)cn1 (stereo not shown) [Compound 4]
[4]
  mlogD: 2.8
PvCDPK1; n = 3
  IC50: < 10 nM
PbCDPK1; n = 3
  IC50: 43 nM

## O=C(NCc1cccc(N2CCCC2)c1)c1ccc(-n2cnc3cccnc32)cc1 [Compound 17]
PfCDPK1 [3]; Rh-ParM
  IC50 ratio (IC50 with 1 mM ATP/IC50 with 30 μM ATP): 27
PfCDPK1 [3]; [5]
  IC50: 51 nM
PfCDPK1 [3]; [6]
  IC50: 1380 nM

## NC(=O)c1ccc(-c2cnn3ccc(NCCc4cccnc4)nc23)cc1 [Compound 15]
PfCDPK1 [1]
  IC50 ratio (ATP depletion/radiometric assay): 2.7
  IC50: 12 nM
PfCDPK1 [2]
  IC50: 32 nM
PfCDPK1 [3]; Rh-ParM
  IC50 ratio (IC50 with 1 mM ATP/IC50 with 30 μM ATP): 12
PfCDPK1 [3]; [5]
  IC50: 23 nM
PfCDPK1 [3]; [6]
  IC50: 270 nM

## CCc1ccccc1NC(=O)CSc1nccn(-c2ccc(OC)cc2)c1=O [Compound 22]
PfCDPK1 [3]; Rh-ParM
  IC50 ratio (IC50 with 1 mM ATP/IC50 with 30 μM ATP): >3
PfCDPK1 [3]; [5]
  IC50: 34200 nM
PfCDPK1 [3]; [6]
  IC50: > 100000 nM

## O=C(NCc1ccc(N2CCCC2)cc1)c1ccc(-n2cnc3cccnc32)cc1 [Compound 16]
PfCDPK1 [3]; Rh-ParM
  IC50 ratio (IC50 with 1 mM ATP/IC50 with 30 μM ATP): 39
PfCDPK1 [3]; [5]
  IC50: 77 nM
PfCDPK1 [3]; [6]
  IC50: 2970 nM

## CCc1nc(N)nc(N)c1-c1ccc(Cl)cc1 [Pyrimethamine, reference compound]
P. falciparum 3D7
  EC50: 8 nM

## CN(C)C1CCN(c2ccc3ncc(-c4cnc(Nc5ncccc5F)nc4)n3n2)C1 (stereo not shown) [Compound 45]
PfCDPK1 [3]; [7]
  IC50: 19 nM
PvCDPK1
  IC50 ratio PvCDPK1/PfCDPK1: 1.0
PvCDPK1; ATP at Km, n = 2
  IC50: 19 nM
PbCDPK1
  IC50 ratio PbCDPK1/PfCDPK1: 3.0
PbCDPK1; ATP at Km, n = 2
  IC50: 58 nM

## Fc1cccnc1Nc1ccc(-c2cnc3ccc(NC4CCC(N5CCCC5)CC4)nn23)cc1 (stereo not shown) [Compound 5]
[4]
  mlogD: 3.3
